pKi: −log10 of the molar value. Read-outs that look alike come from different tables or passages of the source.
Legend:
human D2 receptor = human D2 receptor (Homo sapiens (Human), UniProt P14416); assay: Radioligand binding assay, [3H]-spiperone, human D2 receptor; conditions: membranes of HEK293 EBNA cells expressing human D2; 0.7 nM [3H]-spiperone
In short: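 Membranes from HEK293 EBNA cells transiently expressing human D2 were incubated 1 h at RT with ~0.7 nM [3H]-spiperone and ten compound concentrations (10 μM–0.1 nM) in Tris buffer with NaCl, MgCl2, KCl, CaCl2, EDTA, pH 7.4.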

human D3 receptor = human D3 receptor (Homo sapiens (Human), UniProt P35462); assay: Radioligand binding assay, [3H]-spiperone, human D3 receptor; conditions: membranes of HEK293 EBNA cells expressing human D3; 0.5 nM [3H]-spiperone
In short: (§1)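 Membranes from transiently transfected HEK293 EBNA cells were incubated 1 h at RT with ten compound concentrations (10 μM-0.1 nM) and radioligand: 0.5 nM [3H]-spiperone for D3 (Tris/NaCl/Mg/Ca buffer, pH 7.4) or 1.1 nM [3H]-ketanserin for 5-HT2A (Tris/MgCl2/EGTA, pH 7.4).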

human 5-HT2A receptor = human 5-HT2A receptor (Homo sapiens (Human), UniProt P28223); assay: Radioligand binding assay, [3H]-ketanserin, human 5-HT2A receptor
In short: as §1

[1] = membranes of HEK293 EBNA cells expressing human 5-HT2A, 1.1 nM [3H]-ketanserin

human 5-HT2A receptor, sequence (P28223 whole entry): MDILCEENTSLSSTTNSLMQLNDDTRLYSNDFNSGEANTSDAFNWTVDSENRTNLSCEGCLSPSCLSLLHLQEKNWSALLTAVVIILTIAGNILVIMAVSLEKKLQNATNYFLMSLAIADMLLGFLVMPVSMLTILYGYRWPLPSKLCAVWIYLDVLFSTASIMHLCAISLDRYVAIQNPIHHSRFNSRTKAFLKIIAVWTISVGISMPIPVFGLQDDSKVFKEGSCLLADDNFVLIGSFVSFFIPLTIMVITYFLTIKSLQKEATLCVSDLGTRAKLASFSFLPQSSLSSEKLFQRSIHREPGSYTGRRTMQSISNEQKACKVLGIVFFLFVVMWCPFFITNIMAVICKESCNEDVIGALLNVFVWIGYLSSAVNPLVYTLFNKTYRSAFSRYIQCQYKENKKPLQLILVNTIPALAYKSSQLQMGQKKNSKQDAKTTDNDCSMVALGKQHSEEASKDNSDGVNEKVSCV
human D2 receptor, sequence (P14416 whole entry): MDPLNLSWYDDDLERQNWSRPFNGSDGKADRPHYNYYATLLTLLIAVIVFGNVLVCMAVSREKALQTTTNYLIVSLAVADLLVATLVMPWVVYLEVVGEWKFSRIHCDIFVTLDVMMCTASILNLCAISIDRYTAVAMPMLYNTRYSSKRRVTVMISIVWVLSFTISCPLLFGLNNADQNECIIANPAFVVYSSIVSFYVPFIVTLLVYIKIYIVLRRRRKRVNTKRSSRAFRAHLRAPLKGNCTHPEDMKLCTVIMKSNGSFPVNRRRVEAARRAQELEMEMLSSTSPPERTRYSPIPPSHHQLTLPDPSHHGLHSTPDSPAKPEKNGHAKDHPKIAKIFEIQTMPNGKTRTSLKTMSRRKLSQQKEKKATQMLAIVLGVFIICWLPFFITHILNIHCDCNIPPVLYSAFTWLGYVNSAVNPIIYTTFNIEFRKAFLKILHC
human D3 receptor, sequence (P35462 whole entry): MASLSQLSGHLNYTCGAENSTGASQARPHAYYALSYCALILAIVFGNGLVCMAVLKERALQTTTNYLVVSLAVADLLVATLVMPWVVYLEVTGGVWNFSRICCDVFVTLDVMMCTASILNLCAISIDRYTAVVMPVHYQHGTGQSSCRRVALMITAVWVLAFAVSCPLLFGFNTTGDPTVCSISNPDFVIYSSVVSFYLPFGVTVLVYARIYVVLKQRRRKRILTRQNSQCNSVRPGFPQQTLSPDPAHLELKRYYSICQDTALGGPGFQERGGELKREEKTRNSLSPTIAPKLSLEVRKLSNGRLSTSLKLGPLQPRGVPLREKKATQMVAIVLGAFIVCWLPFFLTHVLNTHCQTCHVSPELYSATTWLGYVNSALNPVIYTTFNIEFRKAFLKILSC

Row | Compound | pKi (human D2 receptor) | pKi (human D3 receptor) | pKi (human 5-HT2A receptor) | melting point | pKi (human 5-HT2A receptor; [1])
1 | CC(C)(C)C(=O)N[C@H]1CC[C@H](CCN2CCN(c3nccc4c3CCO4)CC2)CC1 [Example 70, trans-N-(4-{2-[4-(2,3-Dihydro-furo[3,2-c]pyridin-4-yl)-piperazin-1-yl]-ethyl}-cyclohexyl)-2,2-dimethyl-propionamide] | 6.28 | 7.23 | 8.03 | 185 °C | –
2 | CC(C)CC(=O)N[C@H]1CC[C@H](CCN2CCN(c3nccc4c3CCO4)CC2)CC1 [Example 71, trans-N-(4-{2-[4-(2,3-Dihydro-furo[3,2-c]pyridin-4-yl)-piperazin-1-yl]-ethyl}-cyclohexyl)-3-methyl-butyramide] | 6.18 | 7.96 | – | 202.5 °C | 7.80
3 | CC(C)(C)CC(=O)N[C@H]1CC[C@H](CCN2CCN(c3nccc4c3CCO4)CC2)CC1 [Example 72, trans-N-(4-{2-[4-(2,3-Dihydro-furo[3,2-c]pyridin-4-yl)-piperazin-1-yl]-ethyl}-cyclohexyl)-3,3-dimethyl-butyramide] | 6.35 | 7.77 | – | 192.5 °C | 7.79
4 | O=C(CC1CCC1)N[C@H]1CC[C@H](CCN2CCN(c3nccc4c3CCO4)CC2)CC1 [Example 73, trans-2-Cyclobutyl-N-(4-{2-[4-(2,3-dihydro-furo[3,2-c]pyridin-4-yl)-piperazin-1-yl]-ethyl}-cyclohexyl)-acetamide] | 6.22 | 8.05 | – | 193 °C | 7.88
5 | O=C(N[C@H]1CC[C@H](CCN2CCN(c3nccc4c3CCO4)CC2)CC1)C1CC1(F)F (stereo partly drawn) [Example 74, trans-2,2-Difluoro-cyclopropanecarboxylic acid (4-{2-[4-(2,3-dihydro-furo[3,2-c]pyridin-4-yl)-piperazin-1-yl]-ethyl}-cyclohexyl)-amide] | 6.36 | 7.62 | – | 184.5 °C | 7.76
6 | CC(C)C(=O)N[C@H]1CC[C@H](CCN2CCN(c3nccc4c3CCO4)CC2)CC1 [Example 75, trans-N-(4-{2-[4-(2,3-Dihydro-furo[3,2-c]pyridin-4-yl)-piperazin-1-yl]-ethyl}-cyclohexyl)-isobutyramide] | 6.15 | 7.78 | 7.99 | 219 °C | –
7 | O=C(CC1COC1)N[C@H]1CC[C@H](CCN2CCN(c3nccc4c3CCO4)CC2)CC1 [Example 77, trans-N-(4-{2-[4-(2,3-Dihydro-furo[3,2-c]pyridin-4-yl)-piperazin-1-yl]-ethyl}-cyclohexyl)-2-oxetan-3-yl-acetamide] | 6.12 | 7.92 | – | 195 °C | 7.96
8 | CN(C)C(=O)N[C@H]1CC[C@H](CCN2CCN(c3nccc4c3CCO4)CC2)CC1 [Example 78, trans-3-(4-{2-[4-(2,3-Dihydro-furo[3,2-c]pyridin-4-yl)-piperazin-1-yl]-ethyl}-cyclohexyl)-1,1-dimethyl-urea] | 6.49 | 7.03 | 7.54 | 260 °C | –
9 | O=C(N[C@H]1CC[C@H](CCN2CCN(c3nccc4c3CCO4)CC2)CC1)C(F)(F)F [Example 79, trans-N-(4-{2-[4-(2,3-Dihydro-furo[3,2-c]pyridin-4-yl)-piperazin-1-yl]-ethyl}-cyclohexyl)-2,2,2-trifluoro-acetamide] | 6.11 | 7.33 | – | 213 °C | 7.72
10 | CC(C)=CC(=O)N[C@H]1CC[C@H](CCN2CCN(c3nccc4c3CCO4)CC2)CC1 [Example 80, 3-Methyl-but-2-enoic acid trans-(4-{2-[4-(2,3-dihydro-furo[3,2-c]pyridin-4-yl)-piperazin-1-yl]-ethyl}-cyclohexyl)-amide] | 6.70 | 7.81 | – | 164.5 °C | 7.79
11 | C/C=C/CC(=O)N[C@H]1CC[C@H](CCN2CCN(c3nccc4c3CCO4)CC2)CC1 [Example 81, (E)-Pent-3-enoic acid trans-(4-{2-[4-(2,3-dihydro-furo[3,2-c]pyridin-4-yl)-piperazin-1-yl]-ethyl}-cyclohexyl)-amide] | 6.02 | 7.89 | – | 175.5 °C | 7.64
12 | CC#CC(=O)N[C@H]1CC[C@H](CCN2CCN(c3nccc4c3CCO4)CC2)CC1 [Example 82, But-2-ynoic acid trans-(4-{2-[4-(2,3-dihydro-furo[3,2-c]pyridin-4-yl)-piperazin-1-yl]-ethyl}-cyclohexyl)-amide] | 6.37 | 7.76 | – | 193 °C | 7.91
13 | O=CN[C@H]1CC[C@H](CCN2CCN(c3nccc4c3CCO4)CC2)CC1 [Example 83, trans-N-(4-{2-[4-(2,3-Dihydro-furo[3,2-c]pyridin-4-yl)-piperazin-1-yl]-ethyl}-cyclohexyl)-formamide] | 6.08 | 7.55 | – | 170.5 °C | 7.63
14 | Cc1cc(CC(=O)N[C@H]2CC[C@H](CCN3CCN(c4nccc5c4CCO5)CC3)CC2)on1 [Example 84, trans-N-(4-{2-[4-(2,3-Dihydro-furo[3,2-c]pyridin-4-yl)-piperazin-1-yl]-ethyl}-cyclohexyl)-2-(3-methyl-isoxazol-5-yl)-acetamide] | 5.88 | 8.40 | – | 172.5 °C | 7.82
15 | Cc1cc(C(=O)N[C@H]2CC[C@H](CCN3CCN(c4nccc5c4CCO5)CC3)CC2)on1 [Example 85, 3-Methyl-isoxazole-5-carboxylic acid trans-(4-{2-[4-(2,3-dihydro-furo[3,2-c]pyridin-4-yl)-piperazin-1-yl]-ethyl}-cyclohexyl)-amide] | 6.40 | 7.51 | 7.80 | 218 °C | –
16 | CN(C)C(=O)CCC(=O)N[C@H]1CC[C@H](CCN2CCN(c3nccc4c3CCO4)CC2)CC1 [Example 86, trans-N-(4-{2-[4-(2,3-Dihydro-furo[3,2-c]pyridin-4-yl)-piperazin-1-yl]-ethyl}-cyclohexyl)-N′,N′-dimethyl-succinamide] | 5.59 | 7.42 | – | 188 °C | 7.62
17 | CC(C)(O)CC(=O)N[C@H]1CC[C@H](CCN2CCN(c3nccc4c3CCO4)CC2)CC1 [Example 87, trans-N-(4-{2-[4-(2,3-Dihydro-furo[3,2-c]pyridin-4-yl)-piperazin-1-yl]-ethyl}-cyclohexyl)-3-hydroxy-3-methyl-butyramide] | 6.00 | 7.67 | – | 208 °C | 7.60
18 | O=C(C[C@@H](O)C(F)(F)F)N[C@H]1CC[C@H](CCN2CCN(c3nccc4c3CCO4)CC2)CC1 [Example 88, trans-(R)—N-(4-{2-[4-(2,3-Dihydro-furo[3,2-c]pyridin-4-yl)-piperazin-1-yl]-ethyl}-cyclohexyl)-4,4,4-trifluoro-3-hydroxy-butyramide] | 6.14 | 7.71 | 7.48 | 207 °C | –
19 | CC[C@H](O)CC(=O)N[C@H]1CC[C@H](CCN2CCN(c3nccc4c3CCO4)CC2)CC1 [Example 89, (S)-3-Hydroxy-pentanoic acid trans-(4-{2-[4-(2,3-dihydro-furo[3,2-c]pyridin-4-yl)-piperazin-1-yl]-ethyl}-cyclohexyl)-amide] | 6.05 | 7.70 | 7.52 | 158 °C | –
20 | CO[C@H]1CC[C@H](CC(=O)N[C@H]2CC[C@H](CCN3CCN(c4nccc5c4CCO5)CC3)CC2)C1 [Example 90, trans-N-(4-{2-[4-(2,3-Dihydro-furo[3,2-c]pyridin-4-yl)-piperazin-1-yl]-ethyl}-cyclohexyl)-2-((1S,3S)-3-methoxy-cyclopentyl)-acetamide] | 5.89 | 7.71 | – | 241 °C | 7.65
21 | CCCC(=O)N[C@H]1CC[C@H](CCN2CCN(c3nccc4c3CCO4)CC2)CC1 [Example 92, trans-N-(4-{2-[4-(2,3-Dihydro-furo[3,2-c]pyridin-4-yl)-piperazin-1-yl]-ethyl}-cyclohexyl)-butyramide] | 6.08 | 7.81 | – | 191 °C | 7.64
22 | CC(C)CCC(=O)N[C@H]1CC[C@H](CCN2CCN(c3nccc4c3CCO4)CC2)CC1 [Example 93, 4-Methyl-pentanoic acid trans-(4-{2-[4-(2,3-dihydro-furo[3,2-c]pyridin-4-yl)-piperazin-1-yl]-ethyl}-cyclohexyl)-amide] | 5.89 | 7.64 | – | 182.5 °C | 7.61
23 | CCCCC(=O)N[C@H]1CC[C@H](CCN2CCN(c3nccc4c3CCO4)CC2)CC1 [Example 94, Pentanoic acid trans-(4-{2-[4-(2,3-dihydro-furo[3,2-c]pyridin-4-yl)-piperazin-1-yl]-ethyl}-cyclohexyl)-amide] | 5.94 | 7.72 | – | 180.5 °C | 7.61
24 | O=C(CCC(F)(F)F)N[C@H]1CC[C@H](CCN2CCN(c3nccc4c3CCO4)CC2)CC1 [Example 95, trans-N-(4-{2-[4-(2,3-Dihydro-furo[3,2-c]pyridin-4-yl)-piperazin-1-yl]-ethyl}-cyclohexyl)-4,4,4-trifluoro-butyramide] | 5.90 | 7.70 | 7.53 | 195.5 °C | –
